Reference: patent publication US6281354A, “Analogs of duocarmycin and cc-1065” (The Scripps Research Institute, priority 1999, dated 2001)

Legend:
w794 DNA = assay: DNA alkylation (thermal strand cleavage, PAGE) within w794 DNA; format: biochemical, SV40; settings: for less efficient DNA alkylation than 1: natural enantiomers, 25° C., 24 h
[1] = In vitro cytotoxic activity; settings: for cytotoxic potency of the two enantiomers compared: natural versus unnatural enantiomer; for cytotoxic potency, effect of terminal N^2 substituent (18, 23, 24 compared): natural and unnatural enantiomers; for cytotoxic activity of seco precursor compared with cyclopropane agent: versus 17-20, 23, 30 and 31, respectively
[2] = system: duplex DNA (w794, w836, c988, c820, c1346); format: biochemical, SV40
[3] = Chemical/aqueous solvolysis reactivity followed by UV; format: physicochemical
Description: The solvolysis reactivities of N--BOC-CNA (78) and CNA (79) were followed spectrophotometrically by UV at both pH 3 (50% CH3 OH-buffer, buffer=4:1:20 v/v/v 0.1 M citric acid, 0.2 M Na2 HPO4, H2 O) and pH 7 (50% CH3 OH--H2 O). […] Particularly informative are comparisons of the benzo series of agents that differ only in the C-ring size (i.e., 76-79). Solvolysis reactivity smoothly increases through the series CBI<CBQ<CNA with both the N--BOC derivatives and the free NH derivatives.
Aqueous Solvolysis of N--BOC-CNA (78) and CNA (79). Samples of 78 (150 μg) and 79 (150 [g) were dissolved in CH3 OH (1.5 mL) and the resulting solutions were mixed with aqueous buffer (pH 3, 1.5 mL, 4:1:20 (v:v:v) 0.1 M citric acid, 0.2 M Na2 HPO4, and deionized H2 O respectively). Similarly, a solution of 78 (150 μg) in CH3 OH (1.5 mL) was mixed with deionized H2 O (pH 7, 1.5 mL). The UV spectra of the solutions were measured immediately after mixing with the appropriate aqueous solution. The blank and the solvolysis reaction solutions were stoppered, protected from light, and allowed to stand at 25° C. The total reaction times reflect those required to observe no further change in absorbance. For the solvolysis of 78 at pH 3, the UV spectrum was taken every 30 s for 10 min and then every 3 min for the next 40 min. The decrease of the absorbance at 319 nm was monitored. […] For the solvolysis of 78 at pH 7, the UV spectrum was monitored every 5 min for 19 h. […] For the solvolysis of 79 at pH 3, the UV spectrum was monitored every 2 min for the first 110 min and then every 10 min for the next 4 h. The decrease in the absorbance at 345 nm was recorded.

COC(=O)c1cc2c([nH]1)C(=O)C=C1N(C(=O)c3cc4ccc(OC)cc4[nH]3)CC3CC123 (single isomer, unassigned) [compound 55, Methyl 2-[(6-Methoxyindol-2-yl)carbonyl]-1,2,8,8a-tetrahydrocyclopropa[c]-pyrrolo[3,2-e]indol-4-one-6-carboxylate]
less efficient DNA alkylation than 1 (w794 DNA): 5-10 ×

COC(=O)c1cc2c([nH]1)C(=O)C=C1N(C(=O)c3cc4cccc(OC)c4[nH]3)CC3CC123 (single isomer, unassigned) [compound 56, Methyl 2-[(7-Methoxyindol-2-yl)carbonyl]-1,2,8,8a-tetrahydrocyclopropa[c]pyrrolo[3,2-e]indol-4-one-6-carboxylate]
less efficient DNA alkylation than 1 (w794 DNA): 5-10 ×

CC(C)(C)OC(=O)N1CCCC2CC23C1=CC(=O)c1ccccc13 (single isomer, unassigned; (+)) [(+)-78]
cytotoxic potency of the two enantiomers compared [1]: more potent activity

COC(=O)c1cc2c([nH]1)C(=O)C=C1N(C(=O)c3cc4c5c(ccc4[nH]3)N(C(N)=O)CC5)CC3CC123 (single isomer, unassigned; (+)) [(+)-DSA-CDPI1]
alkylation of the minor w794 site (5'-CAAAG) (w794 DNA): prominently alkylates | concentration required at minor site (5'-CAAAG) relative to major 5'-AATTA site (w794 DNA): 10 x

COC(=O)c1cc2c3c(ccc2[nH]1)N(C(=O)c1cc2c4c(ccc2[nH]1)N(C(=O)c1cc2c([nH]1)C(=O)C=C1N(C(=O)OC(C)(C)C)C[C@H]5C[C@]125)CC4)CC3 [(+)-CDPI2 -DSA]
AT-rich adenine N3 alkylation selectivity (size of site) [2]: 5 base-pair | sequence preference at the alkylation site ([2]; consensus alkylation sequence): 5'-AAA>5'-AAT≥5'-TAA>5'-TAT | alkylation at the natural-enantiomer high affinity site (5'-AATTA) (w794 DNA): without detectable alkylation | high affinity alkylation site in w794 DNA (w794 DNA): 5'-AATTT

COC(=O)c1cc2cc(NC(=O)c3cc4c([nH]3)C(=O)C=C3N(C(=O)OC(C)(C)C)CC5CC345)ccc2[nH]1 (centres unmarked) [compound 17, N-(Methyl 1H-Indol-5-yl-2-carboxylate)-2-((tert-butyloxy)carbonyl)-1,2,8,8a-tetrahydrocyclopropa[c]pyrrolo[3,2-e]indol-4-one-7-carboxamide]
AT-rich adenine N3 alkylation selectivity (size of site) [2]: 3.5 base-pair | cytotoxic potency compared with simple derivatives N--BOC-DSA (4) and N--Ac-DSA ([1]; natural enantiomers): essentially indistinguishable

COC(=O)c1cc2cc(NC(=O)c3cc4cc(NC(=O)c5cc6c([nH]5)C(=O)C=C5N(C(=O)OC(C)(C)C)CC7CC567)ccc4[nH]3)ccc2[nH]1 (centres unmarked) [compound 18, N-{2-[N-(2-Methoxycarbonyl-1H-indol-5-yl)]carbamoyl-1H-indol-5-yl}-2-(tert-butyloxycarbonyl)-1,2,8,8a-tetrahydrocyclopropa[c]pyrrolo[3,2-e]indol-4-one-6-carboxamide]
AT-rich adenine N3 alkylation selectivity (size of site) [2]: 5 base-pair | comparison of DNA alkylation selectivity [2]: no differences in their DNA alkylation selectivity | less efficient at alkylating DNA than DSA-indole2 [2]: ca. 100 × | slower DNA alkylation than DSA-indole2 [2]: ca. 1000 × | unnatural enantiomer less effective at DNA alkylation than natural enantiomer [2]: approximately 10 × | cytotoxic potency, effect of terminal N^2 substituent (18, 23, 24 compared) [1]: essentially indistinguishable | cytotoxic potency compared with simple derivatives N--BOC-DSA (4) and N--Ac-DSA ([1]; natural enantiomers): essentially indistinguishable

COC(=O)c1cc2c3c(ccc2[nH]1)N(C(=O)c1cc2c([nH]1)C(=O)C=C1N(C(=O)OC(C)(C)C)CC4CC124)CC3 (centres unmarked) [compound 19, 6-[(Methyl 1,2-Dihydro-3H-pyrrolo[3,2-e]indole-3-yl)carbonyl-7-carboxylate]-2-((tert-butyloxy)carbonyl)-1,2,8,8a-tetrahydrocyclopropa[c]-pyrrolo[3,2-e]indol-4-one]
AT-rich adenine N3 alkylation selectivity (size of site) [2]: 3.5 base-pair | more potent cytotoxicity than simple derivatives N--BOC-DSA (4) and N--Ac-DSA ([1]; natural enantiomers): less than 10 ×

COC(=O)c1cc2cc(NC(=O)c3cc4cc(NC(=O)c5cc6c7c(cc(O)c6[nH]5)N(C(C)=O)CC7CCl)ccc4[nH]3)ccc2[nH]1 (centres unmarked) [compound 22, N-{2-[N-(2-Methoxycarbonyl-1H-indol-5-yl)]carbamoyl-1H-indol-5-yl}-3-acetyl-1-(chloromethyl)-5-hydroxy-1,2-dihydro-3H-pyrrolo[3,2-e]indole-7-carboxamide]
cytotoxic activity of seco precursor compared with cyclopropane agent [1]: not distinguishable

COC(=O)c1cc2cc(NC(=O)c3cc4cc(NC(=O)c5cc6c([nH]5)C(=O)C=C5N(C(C)=O)CC7CC567)ccc4[nH]3)ccc2[nH]1 (centres unmarked) [compound 23, N-{2-[N-(2-Methoxycarbonyl-1H-indol-5-yl)]carbamoyl-1H-indol-5-yl}-2-acetyl-1,2,8,8a-tetrahydrocyclopropa[c]pyrrolo[3,2-e]indole4-one-6-carboxamide]
comparison of DNA alkylation selectivity [2]: no differences in their DNA alkylation selectivity | less efficient at alkylating DNA than DSA-indole2 [2]: ca. 100 × | more efficient DNA alkylation than the BOC derivative 18 [2]: 2-5 × | slower DNA alkylation than DSA-indole2 [2]: ca. 1000 × | unnatural enantiomer less effective at DNA alkylation than natural enantiomer [2]: approximately 10 × | cytotoxic potency, effect of terminal N^2 substituent (18, 23, 24 compared) [1]: essentially indistinguishable | cytotoxic potency compared with simple derivatives N--BOC-DSA (4) and N--Ac-DSA ([1]; natural enantiomers): essentially indistinguishable

COC(=O)c1cc2cc(NC(=O)c3cc4cc(NC(=O)c5cc6c([nH]5)C(=O)C=C5NCC7CC567)ccc4[nH]3)ccc2[nH]1 (centres unmarked) [compound 24]
DNA alkylation efficiency relative to 18 [2]: about an order of magnitude less efficient | comparison of DNA alkylation selectivity [2]: no differences in their DNA alkylation selectivity | less efficient at alkylating DNA than DSA-indole2 [2]: ca. 100 × | slower DNA alkylation than DSA-indole2 [2]: ca. 1000 × | unnatural enantiomer less effective at DNA alkylation than natural enantiomer [2]: approximately 10 × | cytotoxic potency, effect of terminal N^2 substituent (18, 23, 24 compared) [1]: noticeably less potent

COC(=O)c1cc2c3c(ccc2[nH]1)N(C(=O)c1cc2c4c(cc(O)c2[nH]1)N(C(=O)c1cc2c5c(ccc2[nH]1)N(C(N)=O)CC5)CC4CCl)CC3 (centres unmarked) [compound 28, 7-[(Methyl 1,2-Dihydro-(3H-pyrrolo[3,2-e]indole-3-yl)carbonyl-7-carboxy-late)-3-(3-carbamoyl-1,2-dihydro-3H-pyrrolo[3,2-e]indol-7-yl)carbonyl]-1-(chloromethyl)-5-hydroxy-1,2-dihydro-3H-pyrrolo[3,2-e]indole]
cytotoxic activity of seco precursor compared with cyclopropane agent [1]: not distinguishable

COC(=O)c1cc2c3c(ccc2[nH]1)N(C(=O)c1cc2c4c(cc(O)c2[nH]1)N(C(=O)c1cc2cc(OC)c(OC)c(OC)c2[nH]1)CC4CCl)CC3 (centres unmarked) [compound 29, 7-[(Methyl 1,2-Dihydro-3H-pyrrolo[3,2e]indole-3-yl)carbonyl-7-carboxylate]-3-[(5,6,7-trimethoxyindol-2-yl)carbonyl]-1-(chloromethyl)-5-hydroxy-1,2-dihydro-3H-pyrrolo[3,2-e]indole]
cytotoxic activity of seco precursor compared with cyclopropane agent [1]: not distinguishable

COC(=O)c1cc2c3c(ccc2[nH]1)N(C(=O)c1cc2c([nH]1)C(=O)C=C1N(C(=O)c4cc5cc(OC)c(OC)c(OC)c5[nH]4)CC4CC124)CC3 (centres unmarked) [compound 31]
cytotoxic potency compared with typical agents [1]: essentially equipotent with the typical agents

COC(=O)c1cc2c([nH]1)C(=O)C=C1N(C(=O)c3cc4c5c(ccc4[nH]3)N(C(=O)c3cc4c6c(ccc4[nH]3)N(C(N)=O)CC6)CC5)CC3CC123 (centres unmarked) [compound 61]
cytotoxic potency of the two enantiomers compared [1]: nearly equipotent

COC(=O)N1CCCC2CC23C1=CC(=O)c1ccccc13 (centres unmarked) [compound 97, N-(Methoxycarbonyl)-1,2,3,4,11,11a-hexahydrocyclopropa[c]naphtho[2,1-b]azepin-6-one]
more reactive than N--BOC-DSA (solvolysis) [3]: 10^3 -10^4 × | half-life ([3]; 50% methanol-water, pH 7, no added acid catalysis, read-out: solvolysis t1/2, pH 7 (converted)): 2.1 h

COc1cc2cc(C(=O)N3CCCC4CC45C3=CC(=O)c3ccccc35)[nH]c2c(OC)c1OC (centres unmarked) [compound 98, N-[(5,6,7-Trimethoxyindol-2-yl)carbonyl]-1,2,3,4,11,11a-hexahydrocyclopropa-[c]naphtho[2,1-b]azepin-6-one]
more potent cytotoxicity than N--BOC-CNA (78), natural enantiomer ([1]; natural enantiomer): 5-10 × | difference in cytotoxic potency versus N--BOC-CNA, unnatural enantiomer ([1]; unnatural enantiomers): 1-2 ×

COc1c(O)c2c(c3cc(C(=O)N4CCc5c4c(O)c(OC)c4[nH]c(C(=O)N6CC7CC78C6=CC(=O)c6[nH]cc(C)c68)cc54)[nH]c13)CCN2C(N)=O (stereo not drawn) [ent-(-)-CC-1065, reference compound]
AT-rich adenine N3 alkylation selectivity (size of site) [2]: 5 base-pair | high affinity alkylation site in w794 DNA (w794 DNA): 5'-AATTT
